{"source": "patent US6921530B1", "about": "“Low dose IL-2 for potentiation of immunity” (Cornell Research Foundation, Inc., priority 1999, dated 2005)", "test_system": "circulating lymphocyte subsets (CD4+ T cells, CD8+ T cells, NK cells)", "assay": "Circulating lymphocyte subsets by flow cytometry in HIV-positive subjects on PART + IL-2 and after cessation of PART", "type": "in vivo, human", "from_the_text": "Conditions for patient exclusion included a) uncontrolled infection; b) concurrent therapy with glucocorticoids or other immunosuppressive agents; or c) concurrent immunomodulating agents, eg. IFN-a, granulocyte colony stimulating factor (G-CSF), granulocyte-monocyte colony stimulating factor (GM-CSF).\nPrior to the discontinuation of PART, at least 3 months of daily, low-dose (250,000 U/m^2) subcutaneous IL-2 (R-Met-HU IL2-Ala-125, Amgen, Thousand Oaks, Calif.) immuno-stimulatory therapy were administered as described in Jacobsen, E L et al., Proc Natl Acad Sci USA 93:10405-10 (1996). In addition, to ensure the safest possible immune parameters for the discontinuation of PART, IL-2 immuno-stimulation was continued after the anti-viral drugs were withdrawn.\nSubsequent to the discontinuation of PART, plasma HIV was monitored twice weekly. Plasma HIV RNA concentrations were determined on EDTA anti-coagulated plasma samples, which were frozen (−70° C.) within 3 hours of phlebotomy. Samples were assayed by Bayer Diagnostics, Emeryville, Calif. Lymphocyte subsets were determined on fresh blood samples by flow cytometry using subset-specific monoclonal antibodies and a FACSCaliber from Becton-Dickinson, San, Jose, Calif. by standard procedures according to the manufacturer.\nFor 3 months prior to the discontinuation of PART, the concentration of circulating lymphocyte subsets were monitored monthly (see Table 1). Subsequent to the discontinuation of PART, the lymphocytes were monitored weekly. Whole blood (1 ml) was activated in vitro with HIV recombinant p55 antigen (Chiron Corp., Emeryville, Calif., 1 μg/ml) for 6 hours at 37 C. During the last 4 hours, Brefeldin A (Sigma, Inc., St. Louis, Mo., […]) was added to retard cytokine secretion. At the end of the incubation, EDTA (Sigma, 100 mM) was added, the blood was vortexed vigorously for 10 seconds, and the erythrocytes were lysed using 10 ml FACSLysing Reagent. After a 10 minute incubation the leukocytes were separated by centrifugation (500×g, 10 min), then resuspended and frozen (−70 C) in 2 ml R.P.M.I. 1640 tissue cuture medium containing 10% fetal calf serum and 10% dimethyl sulfoxide. Prior to labeling with monoclonal antibodies, the cells were thawed, centrifuged (500×g, 10 min) and permeabilized using FACSPerm. After washing with 3 ml phosphate buffered saline (PBS), the cells were incubated with fluorochrome-conjugated monoclonal antibodies for 30 minutes at room temperature in the dark. The cells were then washed 1× with PBS, and then fixed with 0.5% paraformaldehyde and analyzed by flow cytometry.", "data": [{"substance": "Interleukin-2 [IL-2]", "values": [{"measurement": "CD8+ T cell concentration as % of baseline levels", "setting": "after 2 weeks of viremia", "result": "> 200 % of baseline"}, {"measurement": "mean peak increase of CD8+ T cells, group with more rapid viral decline", "setting": "after cessation of PART", "result": "350 % of baseline"}, {"measurement": "mean peak increase of CD8+ T cells, group with slower viral decline", "setting": "after cessation of PART", "result": "150 % of baseline"}, {"measurement": "change of circulating NK cells", "setting": "entire interval after discontinuation of PART", "result": "did not change significantly"}, {"measurement": "decrease of circulating CD4+ T cells compared with baseline", "setting": "just after the peak of viremia, after discontinuation of PART", "result": 24, "unit": "%"}, {"measurement": "fold increase of CD8+ T cells from baseline", "setting": "subject D3", "result": 8, "unit": "fold"}, {"measurement": "CD8+ T cells at peak", "setting": "subject D3, coincident with drop in plasma HIV RNA", "result": "4,669 cells/mm3"}]}]}
